The values below come from a melting point compilation (Tetko et al.; mined from patent text by program, amines drawn as free bases though some values may be those of a salt).

The structures appear in SMILES notation.

For the compound `O=[N+]([O-])c1cn2c(n1)OC[C@@H](OCc1ccc(Cl)nn1)C2`, the melting point (as a rule, the temperature, or range, at which the solid turns liquid) fell in the range of 180 to 184 °C.
Turning to `Cc1ccc(-c2ccc3c(c2)C=C(CO)CCO3)cc1`, the melting point was 91 to 92 °C.
The same measure for `Cc1cc(CCCCCOc2ccc(-c3nccs3)cc2)on1`: 78 to 80 °C.
As for `CCOC(=O)Nc1ccc2oc(Cc3ccccc3)cc2c1`, the figure is 95 °C; as for `CCOc1cc2ncnc(N3CCN(C(=O)Nc4ccc([N+](=O)[O-])cc4)CC3)c2cc1OCC`, 120 to 121 °C.
The same measure for `COc1cccc(S(=O)(=O)c2ccc3c(c2)c(CCN(C)C(=O)OC(C)(C)C)c(C)n3C)c1`: 123 to 127 °C; for `CCOC1Nc2c(ccc(C)c2OC(C)=O)C(=O)N2CCCC12` (stereo not drawn): 145 to 147 °C; for `COc1cc(C#N)ccc1-c1nc2cc3c(cc2[nH]1)NC(=O)C3(C)C`: 304 to 312 °C.
Turning to `COc1c(NC(=O)c2ccc(Br)cc2)ccc2cc(CO)cnc12`, the melting point is 185 to 187 °C.
The same measure for `O=CNC(c1cccc(Cl)c1)c1ccnc2ccccc12` (stereo not drawn): 136 °C; for `Nc1c(-c2cccc(Oc3ccccc3)c2)c(=O)[nH]c2cc(Cl)ccc12`: 196 to 197 °C.
Compound `C=CCc1c2c(cc(OCc3ccccc3)c1C(C)(C)C)CC(C)(C)O2` showed a melting point of 73 to 74 °C.
The same measure for `CCCNC(=S)NS(=O)(=O)N1CCC(CCNC(=O)c2cc(Cl)ccc2OC)CC1`: 119 to 121 °C; for `COc1ccc2c(c1)c(-c1cc3nccnc3[nH]1)cn2C`: 270 to 272 °C.
`COC(=O)CCS(=O)c1cc(C(C)(C)C)c(O)c(C(C)(C)C)c1` (stereo not drawn) yielded a melting point of 106 to 108 °C.
As for `O=C(CC(c1ccccc1)(c1ccccc1)c1ccccc1)N1CC2=C(C1)c1cccc3cccc2c13`, the figure is 159 to 168 °C.
Regarding `CCc1noc(-c2cn(-c3ccc(OCc4ccccc4)cc3)cn2)n1`, the melting point fell in the range of 171 to 172 °C.
As for `OCc1cnc(C(O)c2cc(F)ccc2F)c(F)c1` (stereo not drawn), the figure is 94 to 96 °C; as for `COc1cc2nc(C(N)=O)sc2cc1OC`, 211 to 212 °C.
Compound `COc1ccc(/C=C/C#N)cc1OC` yielded a melting point of 93 to 98 °C.
Turning to `CCCCOc1ccc2c(O)c(C(=O)NCCO)nc(Cl)c2c1`, the melting point was 118 to 120 °C.
The compound `O=S1(=O)NC(C2CCCC2)Nc2ccc(S(=O)(=O)N3CCCCC3)cc21` (stereo not drawn) displayed a melting point of 258 to 260 °C.
As for `COc1ccc(S(N)(=O)=O)cc1C(C)O` (stereo not drawn), the figure is 165 to 166 °C; as for `Cc1c(NC(=O)CC(C)(C)C)c(C)c2c(c1-c1ccc[nH]1)OCC2c1ccc(C(C)C)cc1` (stereo not drawn), 188 to 190 °C; as for `CC(C)(O)CNC(=O)c1ccc(-c2ccc(C(CC3CCOCC3)c3ccc(S(=O)(=O)C4CC4)cc3)[nH]2)nc1` (stereo not drawn), 126 to 128 °C.
As for `CC1C(=O)Nc2c(C(=O)c3ccc(Cl)cc3)cccc21` (stereo not drawn), the figure is 130 to 140 °C.
The same measure for `N#Cc1ccc(C(=O)N[C@H]2CC[C@H](CCN3CCC(c4cccc5c4CCO5)CC3)CC2)cc1`: 230 °C; for `COC(=O)CCCc1cc2cc(Cl)ccc2n1S(=O)(=O)c1cccc2nc(C)sc12`: 129 °C.
`CCOc1ccc2c(c1)n(C13CC4CC(CC(C4)C1)C3)c(=O)n2S(=O)(=O)c1ccc([N+](=O)[O-])cc1OC`: the melting point stood at 231 °C.
As to `CC(C)c1c(C(=O)c2ccccc2)n(COCc2ccccc2)c(=O)[nH]c1=O`, the melting point worked out at 184 °C.
For the compound `IC#CCSc1cccnc1`, the melting point was in the range of 114 to 116 °C.
As for `CCCc1ccc(OCCc2c[nH]cn2)cc1`, the figure is 168 to 171 °C; as for `Nc1nc2[nH]c(CCCc3cc(C(=O)O)cs3)cc2c(=O)[nH]1`, 181 to 182 °C.
In turn, `O=C1N(Cc2ccc(C(F)(F)F)o2)c2ccccc2C12COc1cc3c(cc12)OCC3` (stereo not drawn) gave a melting point of 174 to 177 °C.
For `CNc1c(N)c(C)nn1C`, the melting point was found to be 87 °C.
As for `NC(=O)c1ccc(C(F)(F)F)nc1N`, the melting point lay in the range of 227 to 229 °C.
As for `O=C1c2ccccc2C(=O)c2sc(-c3ncc(-c4ccccc4)o3)nc21`, the figure is above 260 °C.
`Cn1ncc(/C=C/C(=O)Nc2ccc(Cc3n[nH]c(=O)o3)cc2)c1-c1ccc(F)cc1`: the melting point was in the range of 262 to 263 °C.
Compound `COc1ccc(O)c(C2(NCC(C)=O)Sc3ccccc3N(C)C2=O)c1` (stereo not drawn) had a melting point of 164 to 168 °C.
`O=C(CBr)Nc1ccc(F)cc1C(=O)c1ccccc1Br` displayed a melting point of 110 to 114 °C.
Turning to `CC(=Cc1ccccc1Cl)C(O)(Cn1cncn1)c1ccc(Cl)cc1` (stereo not drawn), the melting point fell in the range of 141 to 143 °C.
The same measure for `COc1cc(C(N)=O)cc([N+](=O)[O-])c1OC`: 182 to 185 °C; for `CC(C)(C)C(=O)Nc1nc(CN2CCC(c3c[nH]c4ccccc34)CC2)cs1`: 93 to 96 °C; for `CCCn1c(=O)c2[nH]c(/C=C/c3ccccc3Cl)nc2n(CCC)c1=O`: 269 to 270 °C.
As for `COc1cc(Cl)cc(Cl)c1O`, the figure is 62 °C; as for `O=C(c1cc(Cl)cc(Cl)c1)N1CCc2cc(S(=O)(=O)N3CCN(c4cccc(Cl)c4)CC3)ccc21`, 262 to 263 °C; as for `O=C(CCl)NCc1cc2c(c(Br)c1O)CCCC2=O`, 201 to 203 °C.
As for `CN(C)CCNc1ccc(NCCCCN)c2c1C(=O)c1ccccc1C2=O`, the figure is 88 to 90 °C.
On to `O=C(O)CC1CCN(c2ccc3c(NC(=O)CC4CCCCC4)c(Cl)ccc3n2)CC1`, for which the melting point fell in the range of 242 to 244 °C.
As for `Cc1c(NC(=O)OCc2ccccc2)cccc1C(C[N+](=O)[O-])c1c[nH]c2ccc(N3CCOCC3)cc12` (stereo not drawn), the figure is 140 °C.
Turning to `C#CC[C@@H](N)c1nc2cccnc2c(=O)n1Nc1ccccc1`, the melting point lay in the range of 206 to 208 °C.
As for `CC(C)(C)c1cc(C(C)(C)C)cc(C(C)(C)CC(=O)OP2(=O)Oc3c(cc(C(C)(C)C)cc3C(C)(C)C)Cc3cc(C(C)(C)C)cc(C(C)(C)C)c3O2)c1`, the figure is 188 °C; as for `CCCCc1nc(Cl)c(COC)n1Cc1ccc2oc(-c3ccccc3-c3nnn[nH]3)c(Br)c2c1`, 213 to 215 °C; as for `NC(=O)NC1CCCCCC1`, 203 to 204 °C.
Compound `CCOC(=O)C1=C(C)NN=C(c2ccccc2)C1c1ccccc1` (stereo not drawn) displayed a melting point of 130 °C.
The same measure for `CCCn1c(=O)c2c(NC)n[nH]c2n(CCc2ccccc2)c1=O`: 256 to 258 °C; for `Cc1nc2ccccc2n2cnc(-c3noc(C4CC4)n3)c12`: 165 to 167 °C; for `O=S1(=O)NCNc2ccc(Br)cc21`: 200 to 204 °C.
`CS(=O)(=O)c1ccc(-c2c(-c3ccc(F)cc3)c(OCC(=O)c3cccs3)nn2CC(=O)c2cccs2)cc1` showed a melting point of 136 to 138 °C.
Compound `O=[N+]([O-])c1cccc(-c2ccnc3ccnn23)c1` showed a melting point of 204 to 206 °C.
The same measure for `CC(C)(C)OC(=O)NC12CCC1CN(c1c(F)cc3c(=O)c(C(=O)O)cn(C4CC4)c3c1Cl)C2` (stereo not drawn): 200 to 202 °C; for `CC1(C)CC(=O)c2c(C3CC3)sc(-c3nccs3)c2C1`: 103 to 105 °C.
The same measure for `Cc1cc(O)c(S(=O)(=O)CC2CCCCC2)c(=O)o1`: 104 to 106 °C.
